Data: article PMC6222352, “Ultrasound Assisted Synthesis of 4-(Benzyloxy)-N-(3-chloro-2-(substitutedphenyl)-4-oxoazetidin-1-yl) Benzamide as Challenging Anti-Tubercular Scaffold” (Molecules : A Journal of Synthetic Chemistry and Natural …, 2018)
Converted amounts (≈) assume the structure as drawn. Like-named read-outs stand apart in the source and are kept apart here.

What was measured:
[1] = system: human cervical cancer cell line HeLa; test: In vitro cytotoxicity by MTT assay; format: cell-based; conditions: 48 h, concentration range 100–0.1 μg/mL, read-out: Hela Cells IC50
Procedure: To lowers the failure of potential therapeutics at later stages of clinical trials toxicity analysis of synthesized compounds at the early stage of research work plays a very important role. To examine the safety of the synthesized compounds, 6a–j were evaluated for their toxicity against human cervical cancer cell line HeLa using the concentration range between 100–0.1 μg/mL.
All the synthesized compounds were tested for their cytotoxicity by a modified MTT assay as described previously. Briefly, cells were seeded at the density of 1 × 10^5 cells/mL in a 96-well plate. The plates were incubated overnight in CO2 incubator (37 °C under 5% CO2 and 95% air in a humidified atmosphere). Next day, cells were treated with synthesized compounds at 10-fold dilution (100–0.1 µg/mL) and incubated for an additional 48 h. Paclitaxel was used as positive control. Post incubation, cell medium was replaced with MTT (0.5 mg/mL)-PBS medium and incubated for 2–4 h to form the reduced MTT or Formazan crystals. This reduced MTT or Formazan crystals were solubilized by addition of 100 µL of SDS-DMF (20% SDS in 50% DMF). The optical density was read on a microplate reader (Spectramax plus 384 plate reader, Molecular Devices Inc.) at 570 nm filter against a blank prepared from cell-free wells. Absorbance given by cells treated with the vehicle alone was taken as 100% cell growth. IC50 and MIC values were calculated from graphs, using Origin Pro software. Where DMSO treated culture cells is control and culture medium without cells is blank. The percent cytotoxicity in the presence of test fractions was calculated by the following formula:Percent cytotoxicity = [(average absorbance of control − absorbance of a compound)/(absorbance of control − absorbance of blank)] × 100(2)

[2] = system: Mycobacterium tuberculosis H37Ra (ATCC 25177); test: In vitro anti-tubercular activity by XTT Reduction Menadione assay (XRMA); format: cell-based; conditions: 192 h, read-out: Mycobacterium tuberculosis H37Ra (ATCC 25177) IC50
Procedure: All the synthesized compounds 6a–j were screened for their in vitro anti-tubercular activity against MTB H37Ra (ATCC 25177). Rifampicin was used as a positive control.
In Vitro Anti-Tubercular Activity by the XTT Reduction Menadione Assay (XRMA) Method
Mycobacterium tuberculosis H37Ra (ATCC 25177) strains were obtained from AstraZeneca, India. The stock culture was maintained at −80 °C and subcultured once in a liquid M. pheli medium which contained 0.5 g KH2PO4, 0.25 g trisodium citrate, 60 mg MgSO4, 0.5 gm asparagine, and 2 mL glycerol in distilled water (100 mL) followed by pH adjustment to 6.6. Bacilli stock cultures were grown in M. pheli medium at 37 °C with continuous agitation at 150 RPM;, it takes at least 8–10 days for OD 1 at 620 nm. Stock solutions (10 mg/mL) of all the synthesized compounds were prepared in DMSO and were evaluated for in vitro anti-tubercular activity against Mycobacterium tuberculosis H37Ra (ATCC 25177) in a liquid medium using an established XTT Reduction Menadione assay (XRMA) method. Briefly, the 96 wells plate received 248.5 μL of M. Pheli medium consisting of bacilli and 2.5 μL of test solutions in serial dilution (12.5, 6.25, 3.125, 1.5625, 0.78 μg/mL). The plates were sealed with a 96-well sealing sheet and incubated at 37 °C for 8 days. Post incubation, XRMA was carried out to estimate viable cells present in different wells of the assay plate. The absorbance was read on a micro plate reader (Spectramax plus384 plate reader, Molecular Devices Inc., San Jose, CA, USA) at 470 nm filter against a blank prepared from cell-free wells. Absorbance given by cells treated with the vehicle alone was taken as 100% cell growth. MIC and IC50 values of compounds were calculated by using Origin 6 software. Percent inhibition was calculated by using following formula:% Inhibition = [(absorbance of Control − absorbance of Test)/(absorbance of Control − absorbance of Blank)] × 100(1) where control is the medium with bacilli along with vehicle and blank is cell-free medium. The drug in clinical use, rifampicin was used as a reference.

[3] = XRMA, 8 days incubation at 37 °C, liquid M. pheli medium

## O=C(NN1C(=O)C(Cl)C1c1ccc(O)cc1)c1ccc(OCc2ccccc2)cc1 (stereo not shown) [Derivative 6a, 4-(Benzyloxy)-N-(3-chloro-2-(4-hydroxyphenyl)-4-oxoazetidin-1-yl) benzamide]
[1]
  IC50: 82.6 µg/mL (≈ 195 µM)
[2]; [3]
  IC50: 0.652 µg/mL (≈ 1.54 µM)

## COc1ccc(C2C(Cl)C(=O)N2NC(=O)c2ccc(OCc3ccccc3)cc2)cc1 (stereo not shown) [Derivative 6b, 4-(Benzyloxy)-N-(3-chloro-2-(4-methoxyphenyl)-4-oxoazetidin-1-yl) benzamide]
[1]
  IC50: 54.9 µg/mL (≈ 126 µM)
[2]; [3]
  IC50: 0.918 µg/mL (≈ 2.1 µM)

## O=C(NN1C(=O)C(Cl)C1c1ccc(F)cc1)c1ccc(OCc2ccccc2)cc1 (stereo not shown) [Derivative 6c, 4-(Benzyloxy)-N-(3-chloro-2-(4-fluorophenyl)-4-oxoazetidin-1-yl) benzamide]
[1]
  IC50: 31.6 µg/mL (≈ 74.4 µM)
[2]; [3]
  IC50: 0.85 µg/mL (≈ 2 µM)

## O=C(NN1C(=O)C(Cl)C1c1ccc(Cl)cc1)c1ccc(OCc2ccccc2)cc1 (stereo not shown) [Derivative 6d, 4-(Benzyloxy)-N-(3-chloro-2-(4-chlorophenyl)-4-oxoazetidin-1-yl) benzamide]
[1]
  IC50: 70.4 µg/mL (≈ 159 µM)
[2]; [3]
  IC50: 1.34 µg/mL (≈ 3.04 µM)

## O=C(NN1C(=O)C(Cl)C1c1cccc([N+](=O)[O-])c1)c1ccc(OCc2ccccc2)cc1 (stereo not shown) [Derivative 6e, 4-(Benzyloxy)-N-(3-chloro-2-(3-nitrophenyl)-4-oxoazetidin-1-yl) benzamide]
[1]
  IC50: > 100 µg/mL
[2]; [3]
  IC50: 0.654 µg/mL (≈ 1.45 µM)

## COc1ccc(C2C(Cl)C(=O)N2NC(=O)c2ccc(OCc3ccccc3)cc2)cc1OC (stereo not shown) [Derivative 6f, 4-(Benzyloxy)-N-(3-chloro-2-(3,4-dimethoxyphenyl)-4-oxoazetidin-1-yl) benzamide]
[1]
  IC50: 44.1 µg/mL (≈ 94.4 µM)
[2]; [3]
  IC50: 1.72 µg/mL (≈ 3.67 µM)

## COc1cc(C2C(Cl)C(=O)N2NC(=O)c2ccc(OCc3ccccc3)cc2)ccc1O (stereo not shown) [Derivative 6g, 4-(Benzyloxy)-N-(3-chloro-2-(4-hydroxy-3-methoxyphenyl)-4-oxoazetidin-1-yl) benzamide]
[1]
  IC50: > 100 µg/mL
[2]; [3]
  IC50: 0.718 µg/mL (≈ 1.59 µM)

## CCOc1cc(C2C(Cl)C(=O)N2NC(=O)c2ccc(OCc3ccccc3)cc2)ccc1O (stereo not shown) [Derivative 6h, 4-(Benzyloxy)-N-(3-chloro-2-(3-ethoxy-4-hydroxyphenyl)-4-oxoazetidin-1-yl) benzamide]
[1]
  IC50: > 100 µg/mL
[2]; [3]
  IC50: 0.85 µg/mL (≈ 1.82 µM)

## O=C(NN1C(=O)C(Cl)C1c1ccc(OCc2ccccc2)cc1)c1ccc(OCc2ccccc2)cc1 (stereo not shown) [Derivative 6i, 4-(Benzyloxy)-N-(2-(4-(benzyloxy)phenyl)-3-chloro-4-oxoazetidin-1-yl) benzamide]
[1]
  IC50: 89.2 µg/mL (≈ 174 µM)
[2]; [3]
  IC50: 1.31 µg/mL (≈ 2.55 µM)

## O=C(NN1C(=O)C(Cl)C1c1cccs1)c1ccc(OCc2ccccc2)cc1 (stereo not shown) [Derivative 6j, 4-(Benzyloxy)-N-(3-chloro-2-oxo-4-(thiophen-2-yl)azetidin-1-yl) benzamide]
[1]
  IC50: 33.2 µg/mL (≈ 80.4 µM)
[2]; [3]
  IC50: 0.786 µg/mL (≈ 1.9 µM)

## CC(=O)O[C@H]1C(=O)[C@@]2(C)[C@H]([C@H](OC(=O)c3ccccc3)[C@]3(O)C[C@H](OC(=O)[C@H](O)[C@@H](NC(=O)c4ccccc4)c4ccccc4)C(C)=C1C3(C)C)[C@]1(OC(C)=O)CO[C@@H]1C[C@@H]2O [Paclitaxel, reference compound]
[1]
  IC50: 0.0056 µg/mL (≈ 0.00656 µM)

## CO[C@H]1/C=C/O[C@@]2(C)Oc3c(C)c(O)c4c(O)c(c(/C=N/N5CCN(C)CC5)c(O)c4c3C2=O)NC(=O)/C(C)=C\C=C\[C@H](C)[C@H](O)[C@@H](C)[C@@H](O)[C@@H](C)[C@H](OC(C)=O)[C@@H]1C [Rifampicin, reference compound]
[2]
  IC50: 0.004 µg/mL (≈ 0.00486 µM)
